{"source": "patent US20240424022A1", "about": "“IN VIVO AND EX VIVO METHODS OF MODULATING T CELL EXHAUSTION/DE-EXHAUSTION” (Flagship Pioneering Innovations VI, LLC, priority 2021, published 2024)", "key": {"[1]": {"system": "colon adenocarcinoma cell line, MC38", "assay": "Efficacy study in MC38 syngeneic mice, tumor growth inhibition", "type": "in vivo, mouse", "settings": "doses per Table 5 (Anti-PD-1 200 ug IP BIWx3, by day 9; Perturbagen 1 10 mg/kg IP QDx10), Table 3 numbering"}, "[2]": {"system": "CD8+ T cells derived from tumors", "assay": "Flow cytometry of tumor infiltrating T lymphocytes, MC38 syngeneic mouse model", "type": "in vivo", "settings": "MC38 mice, day after final dose, doses per Table 5, Table 3 numbering", "excerpt": "(§1) The day after the final dose, mice were euthanized, blood was collected by cardiac puncture and the tumors were removed. For all mice, a section of tumor was flash frozen in liquid nitrogen and stored at −80 degrees C. for future analysis; the remainder of the tumor was placed in cold RPMI (with glucose) and processed to generate a single cell suspension for flow cytometry. For a pre-selected subgroup of mice, a sample of the single cell suspension was collected for scRNAseq (3 samples from 5 treatment groups provided 15 samples for 2 runs on a 10× Chromium box). Each tumor was minced with a clean razor blade to the consistency of chopped garlic. The tumor was placed in a digestive enzyme mix (mouse tumor dissociation kit, Miltenyi) and incubated on a dissociator at 37 degrees C. for 45 min (OctoMax). Following dissociation, the slurry was filtered through a 70 μm nylon filter, centrifuged, and the pellet resuspended in Ammonium-Chloride-Potassium (ACK) lysing buffer for 3 minutes to lyse red blood cells. The ACK buffer was neutralized with 10-fold excess PBS and then the cell suspension was centrifuged to concentrate the cells. Cell suspensions from all tumors were stored on ice until analyzed by flow cytometry.\nFor flow cytometry, samples of each cell suspension were incubated at room temperature for one hour with an antibody panel optimized for detection of effector and exhausted T cells (Tables 6 and 7). Prior to intracellular staining, samples were permeabilized and fixed using the eBioscience™ Foxp3 Transcription Factor Staining Buffer Set (ThermoFisher) according to the manufacturer's recommendations. Samples were then incubated for one hour with the intracellular staining mix, then centrifuged and resuspended for flow cytometric analysis. Following compensation measurements using commercial beads, fluorescence minus one (fmo) measurements were performed followed by measurements of all the samples. For each sample, at least 100,000 events were recorded. All analysis for flow cytometry data was performed using FlowJo™ (BD)."}, "[3]": {"system": "T cells", "assay": "scRNAseq analysis of MC38 tumor single cell suspensions", "type": "in vivo", "settings": "MC38 syngeneic mouse, versus PBS", "excerpt": "as §1\nAs detailed above, 15 samples of tumor single cell suspension were obtained for single cell RNA sequencing (Table 8). […]"}}, "data": [{"substance": "pembrolizumab", "values": [{"measurement": "Tumor growth inhibition (TGI)", "setting": "[1]", "result": "significant tumor growth inhibition"}, {"measurement": "Expression of PD-1 in CD8+ T cells derived from tumors", "setting": "[2]", "result": "reduced"}, {"measurement": "Expression of TIGIT in CD8+ T cells derived from tumors", "setting": "[2]", "result": "reduced"}, {"measurement": "Number of CD8+ T cells in the tumor", "setting": "[2]", "result": "increased"}, {"measurement": "Density of T cells in scRNAseq manifold", "setting": "[3]", "result": "enhanced"}]}]}
